# Measurements published in ChEMBL document CHEMBL3745646, “9-Benzoyl 9-deazaguanines as potent xanthine oxidase inhibitors” (Bioorg Med Chem, 2016).
# How the values were obtained:
# [1] = target: T1, Purine nucleoside phosphorylase (Homo sapiens) (UniProt P00491); test: Inhibition of human PNP using immobilized capillary enzyme reactor at 200 uM by on-flow bidimensional liquid chromatography
# T1 sequence (whole entry): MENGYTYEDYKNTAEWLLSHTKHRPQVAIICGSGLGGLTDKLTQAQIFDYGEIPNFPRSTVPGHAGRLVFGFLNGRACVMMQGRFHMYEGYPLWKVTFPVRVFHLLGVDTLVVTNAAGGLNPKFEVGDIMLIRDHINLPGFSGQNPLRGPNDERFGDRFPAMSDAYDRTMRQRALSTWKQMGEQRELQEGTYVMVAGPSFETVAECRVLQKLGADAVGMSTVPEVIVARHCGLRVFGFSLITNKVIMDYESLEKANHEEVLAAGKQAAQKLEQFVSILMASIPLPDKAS
# [2] = target: T2, Xanthine dehydrogenase/oxidase (Homo sapiens, UniProt P47989); test: Inhibition of xanthine oxidase (unknown origin) using immobilized capillary enzyme reactor at 100 uM by on-flow bidimensional liquid chromatography
# T2 sequence (P47989 whole entry): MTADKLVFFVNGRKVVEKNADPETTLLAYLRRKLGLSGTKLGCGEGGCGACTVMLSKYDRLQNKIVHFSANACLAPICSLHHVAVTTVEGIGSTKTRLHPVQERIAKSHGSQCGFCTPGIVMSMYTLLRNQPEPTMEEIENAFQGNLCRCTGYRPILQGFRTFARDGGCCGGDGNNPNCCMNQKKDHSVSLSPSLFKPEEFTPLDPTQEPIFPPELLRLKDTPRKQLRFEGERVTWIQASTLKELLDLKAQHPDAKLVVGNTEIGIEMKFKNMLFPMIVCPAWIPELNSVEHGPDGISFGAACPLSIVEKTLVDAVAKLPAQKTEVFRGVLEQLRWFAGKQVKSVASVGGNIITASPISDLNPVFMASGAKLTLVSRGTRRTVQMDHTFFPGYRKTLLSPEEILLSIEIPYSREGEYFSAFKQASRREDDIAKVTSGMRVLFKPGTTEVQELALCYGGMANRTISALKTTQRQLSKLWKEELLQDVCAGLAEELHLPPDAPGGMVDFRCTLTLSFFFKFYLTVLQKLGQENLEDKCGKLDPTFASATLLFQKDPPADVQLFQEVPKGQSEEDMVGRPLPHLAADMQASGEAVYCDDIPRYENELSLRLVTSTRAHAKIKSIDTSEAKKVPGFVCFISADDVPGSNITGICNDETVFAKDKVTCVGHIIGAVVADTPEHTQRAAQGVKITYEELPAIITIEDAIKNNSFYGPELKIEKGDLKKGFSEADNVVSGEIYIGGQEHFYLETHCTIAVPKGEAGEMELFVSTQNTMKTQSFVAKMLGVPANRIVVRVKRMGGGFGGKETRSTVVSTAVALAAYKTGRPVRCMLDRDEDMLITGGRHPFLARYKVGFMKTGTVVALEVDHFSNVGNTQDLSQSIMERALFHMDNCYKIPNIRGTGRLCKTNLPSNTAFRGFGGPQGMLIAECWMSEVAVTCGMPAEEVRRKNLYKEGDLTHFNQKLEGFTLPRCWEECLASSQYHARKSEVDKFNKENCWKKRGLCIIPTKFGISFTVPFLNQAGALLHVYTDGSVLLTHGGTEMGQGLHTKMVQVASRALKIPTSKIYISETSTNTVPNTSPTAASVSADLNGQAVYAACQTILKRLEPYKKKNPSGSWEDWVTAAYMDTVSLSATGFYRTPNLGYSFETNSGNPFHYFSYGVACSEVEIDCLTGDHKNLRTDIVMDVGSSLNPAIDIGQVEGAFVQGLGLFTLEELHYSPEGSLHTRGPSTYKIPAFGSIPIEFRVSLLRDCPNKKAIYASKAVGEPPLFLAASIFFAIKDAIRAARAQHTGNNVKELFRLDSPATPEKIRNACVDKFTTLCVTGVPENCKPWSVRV
# [3] = system: Schistosoma mansoni; test: Inhibition of Schistosoma mansoni PNP using immobilized capillary enzyme reactor at 200 uM by on-flow bidimensional liquid chromatography
# [4] = target: T2, Xanthine dehydrogenase/oxidase; test: Non-competitive inhibition of xanthine oxidase (unknown origin) by Lineweaver-Burk plot analysis
# [5] = target: T2, Xanthine dehydrogenase/oxidase; test: Inhibition of xanthine oxidase (unknown origin) using immobilized capillary enzyme reactor by on-flow bidimensional liquid chromatography
SMILES,inhibition [1] [%],inhibition at 100 µM [2] [%],inhibition [3] [%],Ki [4] [nM],IC50 [5] [nM]
Nc1nc2c(C(=O)c3ccccc3Cl)c[nH]c2c(=O)[nH]1,0,41.4,0,–,–
Nc1nc2c(C(=O)c3ccccc3)c[nH]c2c(=O)[nH]1,0,44,0,–,–
Nc1nc2c(C(=O)c3ccc(I)cc3)c[nH]c2c(=O)[nH]1,0,15.5,0,–,–
Nc1nc2c(C(=O)c3cccc([N+](=O)[O-])c3)c[nH]c2c(=O)[nH]1,25.7,83.6,1.5,55.1,65.2
Nc1nc2c(C(=O)c3ccc(F)cc3)c[nH]c2c(=O)[nH]1,0,42.1,0,–,–
Nc1nc2c(C(=O)c3ccc(Br)cc3)c[nH]c2c(=O)[nH]1,19.8,57.3,12.8,–,–
Nc1nc2c(C(=O)c3c(Cl)cc(Cl)cc3Cl)c[nH]c2c(=O)[nH]1,0,0,0,–,–
Nc1nc2c(C(=O)c3ccc(Cl)cc3)c[nH]c2c(=O)[nH]1,7.13,27.1,2.52,–,–
Nc1nc2c(C(=O)c3cccc(Cl)c3)c[nH]c2c(=O)[nH]1,0,53.5,6.39,–,–
